Measurements as given in patent publication US5081232A, “Complexes of TC99m radiopharmaceuticals” (priority 1987, dated 1992).

Test: Animal biodistribution (in vivo, i.v. injection)
Settings: rats; for Blood, % injected dose/organ: blood taken as 5.8% of body weight; for Muscle, % injected dose/organ: muscle taken as 43% of body weight
Method: 0.1 ml Tc^99m prep was injected i.v. into a lateral tail vein of 6 anaesthetised rats.
At 2 minutes and 60 minutes post injection, 3 rats were sacrificed by decapitation, bled from the neck and dissected. The following organs were removed at dissection: kidney, bladder(+urine), lung, liver, spleen, stomach, small intestine, large intestine, brain (weighed), heart (weighed), thyroid, and samples of blood (weighed) and muscle (weighed, the residual carcass and the tail (injection site). Subsequently samples were counted in an automatic twin crystal gamma counter.
Percentage biodistribution of injected material was calculated (after correction for background) for all organs using the formula: [formula]
Since only samples of muscle and blood were taken, the percentage in these tissues was calculated assuming blood and muscle to represent 5.8 and 43% of total animal weight respectively using the formula: [formula] where CF= 0.058 for blood

CP(C)CCP(C)C.CP(C)CCP(C)C.N#[O+].[99Tc+].[Cl-].[Cl-]
Brain, % injected dose/organ (2 min p.i.): 0.04 % injected dose/organ | Heart, % injected dose/organ (2 min p.i.): 0.46 % injected dose/organ | Heart/Blood Counts/Gram ratio (2 min p.i.): 0.68 | Heart/Liver Counts/Gram ratio (2 min p.i.): 0.38 | Heart/Lung Counts/Gram ratio (2 min p.i.): 0.71 | Heart/Muscle Counts/Gram ratio (2 min p.i.): 1.85 | Kidney + Urine, % injected dose/organ (2 min p.i.): 10.18 % injected dose/organ | Liver + GI, % injected dose/organ (2 min p.i.): 26.33 % injected dose/organ | Liver, % injected dose/organ (2 min p.i.): 15.03 % injected dose/organ | Lung, % injected dose/organ (2 min p.i.): 1.09 % injected dose/organ | Blood, % injected dose/organ (2 min p.i.): 9.96 % injected dose/organ | Muscle, % injected dose/organ (2 min p.i.): 27.00 % injected dose/organ | Brain, % injected dose/organ (60 min p.i.): 0.01 % injected dose/organ | Heart, % injected dose/organ (60 min p.i.): 0.30 % injected dose/organ | Heart/Blood Counts/Gram ratio (60 min p.i.): 4.48 | Heart/Liver Counts/Gram ratio (60 min p.i.): 1.13 | Heart/Lung Counts/Gram ratio (60 min p.i.): 1.53 | Heart/Muscle Counts/Gram ratio (60 min p.i.): 2.34 | Kidney + Urine, % injected dose/organ (60 min p.i.): 42.60 % injected dose/organ | Liver + GI, % injected dose/organ (60 min p.i.): 34.70 % injected dose/organ | Liver, % injected dose/organ (60 min p.i.): 3.14 % injected dose/organ | Lung, % injected dose/organ (60 min p.i.): 0.33 % injected dose/organ | Blood, % injected dose/organ (60 min p.i.): 1.02 % injected dose/organ | Muscle, % injected dose/organ (60 min p.i.): 14.10 % injected dose/organ

O=[N][99Tc]1([Cl])([Cl])([Cl])[N]2C=CC=c3ccc4c(c32)[N]1C=CC=4 [[^99 Tc(NO)(1,10 phen)Cl3]°]
Brain, % injected dose/organ (2 min p.i.): 0.08 % injected dose/organ | Heart, % injected dose/organ (2 min p.i.): 0.40 % injected dose/organ | Heart/Blood Counts/Gram ratio (2 min p.i.): 1.59 | Heart/Liver Counts/Gram ratio (2 min p.i.): 35.14 | Heart/Lung Counts/Gram ratio (2 min p.i.): 1.55 | Heart/Muscle Counts/Gram ratio (2 min p.i.): 1.99 | Kidney + Urine, % injected dose/organ (2 min p.i.): 1.97 % injected dose/organ | Liver, % injected dose/organ (2 min p.i.): 0.16 % injected dose/organ | Lung, % injected dose/organ (2 min p.i.): 0.67 % injected dose/organ | Blood, % injected dose/organ (2 min p.i.): 3.98 % injected dose/organ | Muscle, % injected dose/organ (2 min p.i.): 22.83 % injected dose/organ | Brain, % injected dose/organ (60 min p.i.): 0.04 % injected dose/organ | Heart, % injected dose/organ (60 min p.i.): 0.29 % injected dose/organ | Heart/Blood Counts/Gram ratio (60 min p.i.): 1.36 | Heart/Liver Counts/Gram ratio (60 min p.i.): 10.63 | Heart/Lung Counts/Gram ratio (60 min p.i.): 2.57 | Heart/Muscle Counts/Gram ratio (60 min p.i.): 4.68 | Kidney + Urine, % injected dose/organ (60 min p.i.): 16.05 % injected dose/organ | Liver, % injected dose/organ (60 min p.i.): 0.46 % injected dose/organ | Lung, % injected dose/organ (60 min p.i.): 0.23 % injected dose/organ | Blood, % injected dose/organ (60 min p.i.): 3.49 % injected dose/organ | Muscle, % injected dose/organ (60 min p.i.): 17.02 % injected dose/organ

O=[N][99Tc]([Cl])([Cl])[Cl].c1ccc(-c2ccccn2)nc1 [[^99 Tc(NO)Cl3 (Bipy)], bipyridyltrichloronitrosyltechnetium (11)]
Brain, % injected dose/organ (2 min p.i.): 0.06 % injected dose/organ | Heart, % injected dose/organ (2 min p.i.): 0.32 % injected dose/organ | Heart/Blood Counts/Gram ratio (2 min p.i.): 0.99 | Heart/Liver Counts/Gram ratio (2 min p.i.): 1.31 | Heart/Lung Counts/Gram ratio (2 min p.i.): 1.30 | Heart/Muscle Counts/Gram ratio (2 min p.i.): 1.69 | Kidney + Urine, % injected dose/organ (2 min p.i.): 11.30 % injected dose/organ | Liver + GI, % injected dose/organ (2 min p.i.): 0.00 % injected dose/organ | Liver, % injected dose/organ (2 min p.i.): 3.43 % injected dose/organ | Lung, % injected dose/organ (2 min p.i.): 0.45 % injected dose/organ | Blood, % injected dose/organ (2 min p.i.): 7.17 % injected dose/organ | Muscle, % injected dose/organ (2 min p.i.): 24.17 % injected dose/organ | Brain, % injected dose/organ (60 min p.i.): 0.04 % injected dose/organ | Heart, % injected dose/organ (60 min p.i.): 0.30 % injected dose/organ | Heart/Blood Counts/Gram ratio (60 min p.i.): 2.12 | Heart/Liver Counts/Gram ratio (60 min p.i.): 1.09 | Heart/Lung Counts/Gram ratio (60 min p.i.): 4.13 | Heart/Muscle Counts/Gram ratio (60 min p.i.): 2.02 | Kidney + Urine, % injected dose/organ (60 min p.i.): 22.96 % injected dose/organ | Liver + GI, % injected dose/organ (60 min p.i.): 0.00 % injected dose/organ | Liver, % injected dose/organ (60 min p.i.): 3.35 % injected dose/organ | Lung, % injected dose/organ (60 min p.i.): 0.10 % injected dose/organ | Blood, % injected dose/organ (60 min p.i.): 2.02 % injected dose/organ | Muscle, % injected dose/organ (60 min p.i.): 18.95 % injected dose/organ

O=[N][Tc+][Cl].[C-]#[N+]C(C)(C)C.[C-]#[N+]C(C)(C)C.[C-]#[N+]C(C)(C)C.[C-]#[N+]C(C)(C)C [[^99 Tc(NO)Cl(t-BuCN)4]^+]
Brain, % injected dose/organ (2 min p.i.): 0.04 % injected dose/organ | Heart, % injected dose/organ (2 min p.i.): 1.09 % injected dose/organ | Heart/Blood Counts/Gram ratio (2 min p.i.): 6.19 | Heart/Liver Counts/Gram ratio (2 min p.i.): 2.58 | Heart/Lung Counts/Gram ratio (2 min p.i.): 3.34 | Kidney + Urine, % injected dose/organ (2 min p.i.): 6.86 % injected dose/organ | Liver, % injected dose/organ (2 min p.i.): 5.82 % injected dose/organ | Lung, % injected dose/organ (2 min p.i.): 0.64 % injected dose/organ | Blood, % injected dose/organ (2 min p.i.): 0.40 % injected dose/organ | Muscle, % injected dose/organ (2 min p.i.): 21.45 % injected dose/organ | Brain, % injected dose/organ (60 min p.i.): 0.04 % injected dose/organ | Heart, % injected dose/organ (60 min p.i.): 1.37 % injected dose/organ | Heart/Blood Counts/Gram ratio (60 min p.i.): 8.98 | Heart/Liver Counts/Gram ratio (60 min p.i.): 2.97 | Heart/Lung Counts/Gram ratio (60 min p.i.): 26.02 | Kidney + Urine, % injected dose/organ (60 min p.i.): 8.15 % injected dose/organ | Liver, % injected dose/organ (60 min p.i.): 5.89 % injected dose/organ | Lung, % injected dose/organ (60 min p.i.): 0.12 % injected dose/organ | Muscle, % injected dose/organ (60 min p.i.): 18.30 % injected dose/organ

O=[N][99Tc-]([Cl])([Cl])([Cl])[Cl] [[^99m TcNOCl4]^-]
Brain, % injected dose/organ (2 min p.i.): 0.09 % injected dose/organ | Heart, % injected dose/organ (2 min p.i.): 0.55 % injected dose/organ | Heart/Blood Counts/Gram ratio (2 min p.i.): 0.41 | Heart/Liver Counts/Gram ratio (2 min p.i.): 1.37 | Heart/Muscle Counts/Gram ratio (2 min p.i.): 2.14 | Kidney + Urine, % injected dose/organ (2 min p.i.): 6.26 % injected dose/organ | Liver + GI, % injected dose/organ (2 min p.i.): 13.49 % injected dose/organ | Liver, % injected dose/organ (2 min p.i.): 5.31 % injected dose/organ | Lung, % injected dose/organ (2 min p.i.): 2.09 % injected dose/organ | Blood, % injected dose/organ (2 min p.i.): 20.32 % injected dose/organ | Muscle, % injected dose/organ (2 min p.i.): 30.35 % injected dose/organ | Brain, % injected dose/organ (60 min p.i.): 0.05 % injected dose/organ | Heart, % injected dose/organ (60 min p.i.): 0.42 % injected dose/organ | Heart/Blood Counts/Gram ratio (60 min p.i.): 0.43 | Heart/Liver Counts/Gram ratio (60 min p.i.): 0.98 | Heart/Muscle Counts/Gram ratio (60 min p.i.): 1.66 | Kidney + Urine, % injected dose/organ (60 min p.i.): 14.61 % injected dose/organ | Liver + GI, % injected dose/organ (60 min p.i.): 11.89 % injected dose/organ | Liver, % injected dose/organ (60 min p.i.): 4.59 % injected dose/organ | Lung, % injected dose/organ (60 min p.i.): 1.71 % injected dose/organ | Blood, % injected dose/organ (60 min p.i.): 14.94 % injected dose/organ | Muscle, % injected dose/organ (60 min p.i.): 30.41 % injected dose/organ
